Values of other authors, collected in patent US9949922B2, “Silica hydrogel composite” (DELSITECH OY, priority 2013, dated 2018).

Conditions: nimodipine value from DrugBank

- Water solubility: 0.8 mg/mL
Structure (SMILES): O=C1OC2(c3ccc(O)cc3Oc3cc(O)ccc32)c2ccccc21 [Fluorescein]
